In patent US8772253B2, “Aureolic acid derivatives, the method for preparation thereof and the uses” (Entrechem, S.L., priority 2009, dated 2014):
Like-named read-outs stand apart in the source and are kept apart here.

Assays:
Type in all cases: cell-based
[1] = test system: T98G (human glyoblastoma); assay: MTT cell proliferation (cytotoxicity) assay, T98G; conditions: read-out: IC50 or concentration required to achieve 50% growth inhibition compared to untreated cells, T98G (glyoblastoma)
Experimental: (§1) MTM and CRM derivatives were assayed against a collection of tumor cell lines. Tumor cell lines were obtained from The American Type and Culture Collection (ATCC), and the lines were the following; A549 (human lung carcinoma); H116 (colon adenocarcinoma); PSN1 (pancreatic adenocarcinoma) and T98G (human glyoblastoma). Cells were cultured in medium RPM1 containing 2 mM glutamine, 50 IU/ml penicillin and 50 μg/ml streptomycin. Culture medium for cell lines A549 and H116 was supplemeted with 5% FBS and culture medium for cell lines PSN1 and T98G was supplemented with 10% FBS.
(§2) The evaluation of compound cytotoxicity was carried out by determining cell viability using an assay based on metabolic reduction of 3-(4,5-dimethyl-2-thiazolyl)-2,5-diphenyltetrazolium bromide (MTT; Sigma Chemical Co. St. Louis, Mo.). This reduction reaction is carried out by mitochondrion succinate dehydrogenase of viable cells and produce formazan, a chromogenic compound that can be quantified by spectrophotometry.
(§3) The assay was carried out following the procedure described by Mosmann (J. Immunol. Methods 1983, 65, 55). Tumor cells were incubated in 96 well microtitre plates containing 200 μl of complete medium (with 4×10^3 cells/well for A549 and 6×10^3 cells/well for H116, PSN1 and T98G). Serial dilutions in DMSO of the test compounds (10 μg/ml, 5 μg/ml, 1 μg/ml, 0.5 μg/ml, 0.1 μg/ml, 0.05 μg/ml, 0.01 μg/ml, y 0.005 μg/ml) were added and after 2 days incubation (at 37° C., 5% CO2 and high relative humidity), 50 μl of MTT (1 mg/ml in PBS) was added to each well. The plates were incubated at 37° C. for 2 hours and the reduction product (formazan) was resuspended in 100 μl of DMSO and quantified at 490 nm with a spectrophotometer.

[2] = test system: H116 (colon adenocarcinoma); assay: MTT cell proliferation (cytotoxicity) assay, H116; conditions: read-out: IC50 or concentration required to achieve 50% growth inhibition compared to untreated cells, H116 (colon)
Experimental: as §1, §2, §3

[3] = test system: A549 (human lung carcinoma); assay: MTT cell proliferation (cytotoxicity) assay, A549; conditions: read-out: IC50 or concentration required to achieve 50% growth inhibition compared to untreated cells, A549 (lung)
Experimental: as §1, §2, §3

[4] = test system: PSN1 (pancreatic adenocarcinoma); assay: MTT cell proliferation (cytotoxicity) assay, PSN1; conditions: read-out: IC50 or concentration required to achieve 50% growth inhibition compared to untreated cells, PSN1 (pancreatic adenocarcinoma)
Experimental: as §1, §2, §3

[5] = T98G cells, MTT, 2 days incubation, triplicate
[6] = H116 cells, MTT, 2 days incubation, triplicate
[7] = A549 cells, MTT, 2 days incubation, triplicate
[8] = PSN1 cells, MTT, 2 days incubation, triplicate, read-out: IC50 or concentration required to achieve 50% growth inhibition compared to untreated cells, PSN1 (prostate)
[9] = Homo sapiens, 48 h, T98G cells, MTT, 2 days incubation, triplicate
[10] = 48 h, H116 cells, MTT, 2 days incubation, triplicate
[11] = Homo sapiens, 48 h, A549 cells, MTT, 2 days incubation, triplicate
[12] = Homo sapiens, 48 h, PSN1 cells, MTT, 2 days incubation, triplicate, read-out: IC50 or concentration required to achieve 50% growth inhibition compared to untreated cells, PSN1 (prostate)

Row | Compound | IC50 [1, 9] [nM] | IC50 [2, 10] [nM] | IC50 [3, 11] [nM] | IC50 [4, 12] [nM] | other results
1 | 3D-demycarosyl-3D-β-D-digitoxosyl-MTM [reference compound] | – | – | – | – | IC50 [1, 5]: 69 nM; IC50 [2, 6]: 46.6 nM; IC50 [3, 7]: 46.6 nM; IC50 [4, 8]: 46.6 nM
2 | 3D-demycarosyl-MTM-SK [reference compound] | – | – | – | – | IC50 [1, 5]: > 1000 nM; IC50 [2, 6]: 500 nM; IC50 [3, 7]: 1000 nM; IC50 [4, 8]: 1000 nM
3 | CO[C@H](C(=O)C(C)=O)[C@@H]1Cc2cc3cc(O[C@H]4C[C@@H](O[C@H]5C[C@@H](O)[C@H](O)C(C)O5)[C@H](O)C(C)O4)c(C)c(O)c3c(O)c2C(=O)[C@H]1O[C@H]1C[C@@H](O[C@H]2C[C@@H](O[C@H]3C[C@@H](O)[C@H](O)C(C)O3)[C@@H](O)C(C)O2)[C@H](O)C(C)O1 (some centres unmarked) [(IX)] | – | – | – | – | IC50 ([1]; Homo sapiens, T98G, 48 h): 10 nM; IC50 ([2]; H116, 48 h): 5 nM; IC50 ([3]; Homo sapiens, A549, 48 h): 5 nM; IC50 ([4]; Homo sapiens, PSN1, 48 h): 5 nM
4 | C/C=C/C(=O)O[C@@H]1C[C@H](O[C@@H]2C[C@H](Oc3cc4cc5c(c(O)c4c(O)c3C)C(=O)[C@@H](O[C@H]3C[C@@H](O[C@H]4C[C@@H](O[C@H]6C[C@](C)(O)[C@H](O)C(C)O6)[C@@H](O)C(C)O4)[C@H](O)C(C)O3)[C@H]([C@H](OC)C(=O)[C@@H](O)[C@@H](C)O)C5)OC(C)[C@H]2O)OC(C)[C@H]1O (some centres unmarked) [(LI)] | 87 | 43 | 43 | 43 | –
5 | CO[C@H](C(=O)[C@@H](O)[C@@H](C)OC(=O)CCC(=O)O)[C@@H]1Cc2cc3cc(O[C@H]4C[C@@H](O[C@H]5C[C@@H](O)[C@H](O)C(C)O5)[C@H](O)C(C)O4)c(C)c(O)c3c(O)c2C(=O)[C@H]1O[C@H]1C[C@@H](O[C@H]2C[C@@H](O[C@H]3C[C@](C)(O)[C@H](O)C(C)O3)[C@@H](O)C(C)O2)[C@H](O)C(C)O1 (some centres unmarked) [(LII)] | 844 | 420 | 420 | 420 | –
6 | CO[C@H](C(=O)[C@@H](O)[C@@H](C)O)[C@@H]1Cc2cc3cc(O[C@H]4C[C@@H](O[C@H]5C[C@@H](O)[C@H](OC(=O)CCC(=O)O)C(C)O5)[C@H](O)C(C)O4)c(C)c(O)c3c(O)c2C(=O)[C@H]1O[C@H]1C[C@@H](O[C@H]2C[C@@H](O[C@H]3C[C@](C)(O)[C@H](O)C(C)O3)[C@@H](O)C(C)O2)[C@H](O)C(C)O1 (some centres unmarked) [(LIII)] | 844 | 844 | 4210 | 633 | –
7 | CO[C@H](C(=O)[C@@H](O)[C@@H](C)O)[C@@H]1Cc2cc3cc(O[C@H]4C[C@@H](O[C@H]5C[C@@H](OC(=O)CCC(=O)O)[C@H](O)C(C)O5)[C@H](O)C(C)O4)c(C)c(O)c3c(O)c2C(=O)[C@H]1O[C@H]1C[C@@H](O[C@H]2C[C@@H](O[C@H]3C[C@](C)(O)[C@H](O)C(C)O3)[C@@H](O)C(C)O2)[C@H](O)C(C)O1 (some centres unmarked) [(LV)] | 4210 | 4210 | 4210 | 422 | –
8 | CO[C@@H]([C@@H]1Cc2cc3cc(O[C@H]4C[C@@H](O[C@H]5C[C@@H](OC(C)=O)[C@H](O)C(C)O5)[C@H](O)C(C)O4)c(C)c(O)c3c(O)c2C(=O)[C@H]1O[C@H]1C[C@@H](O[C@H]2C[C@@H](O[C@H]3C[C@](C)(O)[C@H](O)C(C)O3)[C@@H](O)C(C)O2)[C@H](O)C(C)O1)[C@@H](O)C(C)=O (some centres unmarked) [(LXI)] | 45 | 9 | 45 | 6.5 | –
9 | CO[C@@H]([C@@H]1Cc2cc3cc(O[C@H]4C[C@@H](O[C@H]5C[C@@H](O)[C@H](OC(C)=O)C(C)O5)[C@H](O)C(C)O4)c(C)c(O)c3c(O)c2C(=O)[C@H]1O[C@H]1C[C@@H](O[C@H]2C[C@@H](O[C@H]3C[C@](C)(O)[C@H](O)C(C)O3)[C@@H](O)C(C)O2)[C@H](O)C(C)O1)[C@@H](O)C(C)=O (some centres unmarked) [(LXIX)] | 4 | 9 | 9 | 45 | –
10 | CO[C@@H]([C@@H]1Cc2cc3cc(O[C@H]4C[C@@H](O[C@H]5C[C@@H](O)[C@H](O)C(C)O5)[C@H](O)C(C)O4)c(C)c(O)c3c(O)c2C(=O)[C@H]1O[C@H]1C[C@@H](O[C@H]2C[C@@H](O[C@H]3C[C@@H](O)[C@H](O)C(C)O3)[C@@H](O)C(C)O2)[C@H](O)C(C)O1)[C@@H](O)C(C)=O (some centres unmarked) [(VII)] | 300 | 10 | 50 | 100 | –
11 | CO[C@H](C(=O)C(C)=O)[C@@H]1Cc2cc3cc(O[C@H]4C[C@@H](O[C@H]5C[C@@H](O)[C@H](O)C(C)O5)[C@H](O)C(C)O4)c(C)c(O)c3c(O)c2C(=O)[C@H]1O[C@H]1C[C@@H](O[C@H]2C[C@@H](O)[C@@H](O)C(C)O2)[C@H](O)C(C)O1 (some centres unmarked) [(VIII)] | 300 | 50 | 50 | 100 | –
12 | CO[C@H](C(=O)[C@@H](O)[C@@H](C)O)[C@@H]1Cc2cc3cc(O[C@H]4C[C@@H](O[C@H]5C[C@@H](O)[C@H](O)C(C)O5)[C@H](O)C(C)O4)c(C)c(O)c3c(O)c2C(=O)[C@H]1O[C@H]1C[C@@H](O[C@H]2C[C@@H](O[C@H]3C[C@](C)(O)[C@H](OC(C)=O)C(C)O3)[C@@H](O)C(C)O2)[C@H](O)C(C)O1 (some centres unmarked) [(XII)] | 300 | 10 | 50 | 50 | –
13 | CO[C@@H]([C@@H]1Cc2cc3cc(O[C@H]4C[C@@H](O[C@H]5C[C@@H](O)[C@H](O)C(C)O5)[C@H](O)C(C)O4)c(C)c(O)c3c(O)c2C(=O)[C@H]1O[C@H]1C[C@@H](O[C@H]2C[C@@H](O[C@H]3C[C@](C)(O)[C@H](O)C(C)O3)[C@@H](O)C(C)O2)[C@H](O)C(C)O1)[C@@H](O)C(C)=O (some centres unmarked) [(XIV)] | 750 | 10 | 50 | 50 | –
14 | CCCC(=O)O[C@@H]1C[C@H](O[C@@H]2C[C@H](Oc3cc4cc5c(c(O)c4c(O)c3C)C(=O)[C@@H](O[C@H]3C[C@@H](O[C@H]4C[C@@H](O[C@H]6C[C@](C)(O)[C@H](O)C(C)O6)[C@@H](O)C(C)O4)[C@H](O)C(C)O3)[C@H]([C@H](OC)C(=O)[C@@H](O)[C@@H](C)O)C5)OC(C)[C@H]2O)OC(C)[C@H]1O (some centres unmarked) [(XLVI)] | 43 | 43 | 433 | 43 | –
15 | CCCC(=O)O[C@H](C)[C@H](O)C(=O)[C@@H](OC)[C@@H]1Cc2cc3cc(O[C@H]4C[C@@H](O[C@H]5C[C@@H](O)[C@H](O)C(C)O5)[C@H](O)C(C)O4)c(C)c(O)c3c(O)c2C(=O)[C@H]1O[C@H]1C[C@@H](O[C@H]2C[C@@H](O[C@H]3C[C@](C)(O)[C@H](O)C(C)O3)[C@@H](O)C(C)O2)[C@H](O)C(C)O1 (some centres unmarked) [(XXXI)] | 43 | 43 | 43 | 43 | –
16 | CO[C@H](C(=O)C(C)=O)[C@@H]1Cc2cc3cc(O[C@H]4C[C@@H](O[C@H]5C[C@@H](O)[C@H](O)[C@@H](C)O5)[C@H](O)[C@@H](C)O4)c(C)c(O)c3c(O)c2C(=O)[C@H]1O[C@H]1C[C@@H](O[C@H]2C[C@@H](O[C@H]3C[C@](C)(O)[C@H](O)[C@@H](C)O3)[C@@H](O)[C@@H](C)O2)[C@H](O)[C@@H](C)O1 [MTM-SDK, reference compound] | – | – | – | – | IC50 [1, 5]: 47.4 nM; IC50 [2, 6]: 9.4 nM; IC50 [3, 7]: 9.4 nM; IC50 [4, 8]: 9.4 nM
17 | CO[C@@H]([C@@H]1Cc2cc3cc(O[C@H]4C[C@@H](O[C@H]5C[C@@H](O)[C@H](O)[C@@H](C)O5)[C@H](O)[C@@H](C)O4)c(C)c(O)c3c(O)c2C(=O)[C@H]1O[C@H]1C[C@@H](O[C@H]2C[C@@H](O[C@H]3C[C@](C)(O)[C@H](O)[C@@H](C)O3)[C@@H](O)[C@@H](C)O2)[C@H](O)[C@@H](C)O1)[C@@H](O)C(C)=O [MTM-SK, reference compound] | – | – | – | – | IC50 [1, 5]: 47.3 nM; IC50 [2, 6]: 9.4 nM; IC50 [3, 7]: 9.4 nM; IC50 [4, 8]: 9.4 nM
